Reference: publication PMC8835475, “Salviolone from Salvia miltiorrhiza Roots Impairs Cell Cycle Progression, Colony Formation, and Metalloproteinase-2 Activity in A375 Melanoma Cells: Involvement of P21(Cip1/Waf1) Expression and STAT3 Phosphorylation” (International Journal of Molecular Sciences, 2022)

Legend:
Format in all cases: cell-based, human
MeWo melanoma cell line = assay: SRB cell viability assay in MeWo cells; details: for inhibition of melanoma cell viability: 20 µM; for inhibition of melanoma cell viability / EC50: 72 h; for EC50: Homo sapiens, read-out: EC50 useful in diminishing cell viability; for EC50 / viability reduction in melanoma cells: SRB; for viability reduction in melanoma cells: 40–60 µM
Procedure: In preliminary experiments, the evaluation of cell viability at different time after compound administration was carried out with sulforhodamine B (SRB) assay. Indeed, after 24-, 48-, and 72-h treatment, an evident time dependence in the inhibition of cell growth was registered (data not shown). Thus, to evaluate A375 and MeWo cell viability, we decided to perform further SRB experiments with each compound only after 72 h.
Human MeWo (HTB-65) and A375 (CRL-1619) melanoma cell lines as well as the normal human epidermal melanocyte (NHEM) (PCS-200-013) cell line (ATCC, Manassas, VA, USA) were cultured at 37 °C under 5% CO2 in a humidified atmosphere. Roswell Park Memorial Institute 1640 medium (RPMI, Gibco, Ref.21875, Thermo Scientific, Waltham, MA, USA) was used to culture MeWo cells, while Dulbecco’s Modified Eagle Medium (DMEM, Gibco, Ref. 61965, Thermo Scientific, Waltham, MA, USA) was used for A375 and NHEM cell lines. The culture media were supplemented with 10% fetal bovine serum (FBS, Gibco, Thermo Scientific, Waltham, MA, USA) plus 1% Antibiotic Antimycotic Solution (Gibco, Thermo Scientific). The MEK1 inhibitor U0126 (CAY-70970) and the PI3K inhibitor LY294002 (CAY-70920) were provided by Cayman Chemical, Ann Arbor, MI, USA.
Melanoma MeWo and A375 cells or NHEM were seeded in 96-well plates (5.0 × 10^3 cells/well for MeWo cells and 2.9 × 10^3 cells/well for A375 or NHEM). After 24-h culture, the cells were treated with different concentrations of compounds 1–7. After 72-h treatment, the cells were fixed by adding 25 µL/well of 50% (w/v) TCA directly into the culture medium. The plates were incubated at 4 °C for 1 h, washed four times with ddH2O, and dried at RT. Staining was performed by adding 50 µL/well of 0.04% (w/v) sulforhodamine B (SRB) sodium salt solution (Sigma-Aldrich, Milan, Italy). After 1-h incubation at RT, the plates were rinsed with 1% HAc and air-dried. SRB was solubilized in a 10 mM Tris-base solution pH 10.5 and Abs492 measured in the plate reader TECAN NanoQuant Infinite M200 Pro (Tecan Group Ltd., Männedorf, Switzerland). Six replicates for each condition/data point were performed.

pRb = assay: Immunoblot of pRb in A375 cells; details: A375, 20 µM, 48 or 72 h
Procedure: (§1) A375 cells were seeded in 6 cm Petri dishes (190 300 cell/dish) and treated with different compounds at 10 or 20 μM. After 48- or 72-h treatment, the cells were scraped using warm 1× sample buffer (2% SDS, 10% glycerol, 50 mM Tris-HCl, 1.75% β-mercaptoethanol, and bromophenol blue) and boiled at 99 °C for 10 min. Total protein extracts were kept at −80 °C until use.
(§2) Protein extracts were analyzed with a 7.5 or 10% polyacrylamide SDS-PAGE and transferred to a polyvinylidene difluoride membrane (PVDF, Thermo Fisher Scientific, Waltham, MA, USA). The membranes were blocked at RT for 1 h with TBST buffer (10 mM Tris-HCl pH 7.5, 100 mM NaCl, 0.1% Tween20) containing 4% Milk (Formulat). […] Immuno-detection was carried out with an ECL kit (GE-Healthcare, Little Chalfont, UK), and the chemiluminescence signals were detected with ChemiDoc (Bio-Rad, Hercules, CA, USA).

cyclin A2 = assay: Immunoblot of cyclin A2 in A375 cells; details: A375, 20 µM, 48 or 72 h
Procedure: as §1, §2

P21(Cip1/Waf1) = assay: Immunoblot of P21 in A375 cells; details: A375, 20 µM, 48 and 72 h
Procedure: as §1, §2

p-Ser727-STAT3 = assay: Immunoblot of p-Ser727-STAT3 in A375 cells; details: A375, 20 µM, 72 h
Procedure: as §1, §2

Akt = assay: Immunoblot of total Akt in A375 cells; details: A375, 20 µM, 48 and 72 h
Procedure: as §1, §2

A375 melanoma cells = assay: Soft agar colony formation assay; details: A375, 5 and 10 µM, 21-day culture
Procedure: Before seeding, 6-well plates were prepared with soft agar, as follows: the bottom layer was filled with 1% low-gelling temperature agarose and 2X DMEM, supplemented with 20% FBS and 2% Antibiotic Antimycotic Solution (Gibco, BRL Invitrogen Corp., Carlsbad, CA, USA). After 30 min, cells (5000 cell/well) were suspended in 0.6% agarose and 2X DMEM supplemented with 20% FBS and 2% Antibiotic Antimycotic Solution (Gibco, BRL Invitrogen Corp., Carlsbad, CA, USA) and placed over the 0.5% agarose layer. Then, either cryptotanshinone (4) or salviolone (7) at 5–10 μM was added directly into each well and 100 μL of fresh media was added twice a week for 3 weeks. The semi-solid cultures were performed in triplicate and images captured.

| Compound | inhibition of melanoma cell viability (MeWo melanoma cell line) | EC50 (MeWo melanoma cell line) | viability reduction in melanoma cells (MeWo melanoma cell line) | phosphorylation of Rb (pRb) expression level (pRb) | cyclin A2 expression level (cyclin A2) | P21 expression level (P21(Cip1/Waf1)) | p-Ser727-STAT3 level (p-Ser727-STAT3) | expression level of Akt total protein (Akt) | number and dimension of colonies formed on soft agar (A375 melanoma cells) |
| --- | --- | --- | --- | --- | --- | --- | --- | --- | --- |
| C[C@H]1COC2=C1C(=O)C(=O)c1c2ccc2c1CCCC2(C)C [Compound 4, cryptotanshinone] | about 50% | 17 µM | 70–80% | slightly reduced | slightly reduced | significantly increased | increase | not changed | decreased |
| Cc1cc2ccc3c(c2cc(O)c1=O)CCCC3(C)C [Compound 7, salviolone] | about 50% | 22 µM | 70–80% | strongly reduced | strongly reduced | strongly increased | increase | not changed | decreased |
